Target: T1, SMARCA2 (Homo sapiens, UniProt P51531)
T1 construct: endogenous in cells; host or cells: HT1080 (CRISPR HiBiT knock-in clone, generated in house)
Experiment: SMARCA2 HiBiT degradation assay (cellular)
Format: cell-based
Details: table head names A549; for DC50: HiBiT-tagged SMARCA2, luminescence read-out, read-out: HiBit A549 SMARCA2 IP (nM) 6 h; for Emax: A549, 6 h incubation

[1] = Emax = amount of residual protein remaining in the cell following compound treatment

T1 sequence (P51531 whole entry): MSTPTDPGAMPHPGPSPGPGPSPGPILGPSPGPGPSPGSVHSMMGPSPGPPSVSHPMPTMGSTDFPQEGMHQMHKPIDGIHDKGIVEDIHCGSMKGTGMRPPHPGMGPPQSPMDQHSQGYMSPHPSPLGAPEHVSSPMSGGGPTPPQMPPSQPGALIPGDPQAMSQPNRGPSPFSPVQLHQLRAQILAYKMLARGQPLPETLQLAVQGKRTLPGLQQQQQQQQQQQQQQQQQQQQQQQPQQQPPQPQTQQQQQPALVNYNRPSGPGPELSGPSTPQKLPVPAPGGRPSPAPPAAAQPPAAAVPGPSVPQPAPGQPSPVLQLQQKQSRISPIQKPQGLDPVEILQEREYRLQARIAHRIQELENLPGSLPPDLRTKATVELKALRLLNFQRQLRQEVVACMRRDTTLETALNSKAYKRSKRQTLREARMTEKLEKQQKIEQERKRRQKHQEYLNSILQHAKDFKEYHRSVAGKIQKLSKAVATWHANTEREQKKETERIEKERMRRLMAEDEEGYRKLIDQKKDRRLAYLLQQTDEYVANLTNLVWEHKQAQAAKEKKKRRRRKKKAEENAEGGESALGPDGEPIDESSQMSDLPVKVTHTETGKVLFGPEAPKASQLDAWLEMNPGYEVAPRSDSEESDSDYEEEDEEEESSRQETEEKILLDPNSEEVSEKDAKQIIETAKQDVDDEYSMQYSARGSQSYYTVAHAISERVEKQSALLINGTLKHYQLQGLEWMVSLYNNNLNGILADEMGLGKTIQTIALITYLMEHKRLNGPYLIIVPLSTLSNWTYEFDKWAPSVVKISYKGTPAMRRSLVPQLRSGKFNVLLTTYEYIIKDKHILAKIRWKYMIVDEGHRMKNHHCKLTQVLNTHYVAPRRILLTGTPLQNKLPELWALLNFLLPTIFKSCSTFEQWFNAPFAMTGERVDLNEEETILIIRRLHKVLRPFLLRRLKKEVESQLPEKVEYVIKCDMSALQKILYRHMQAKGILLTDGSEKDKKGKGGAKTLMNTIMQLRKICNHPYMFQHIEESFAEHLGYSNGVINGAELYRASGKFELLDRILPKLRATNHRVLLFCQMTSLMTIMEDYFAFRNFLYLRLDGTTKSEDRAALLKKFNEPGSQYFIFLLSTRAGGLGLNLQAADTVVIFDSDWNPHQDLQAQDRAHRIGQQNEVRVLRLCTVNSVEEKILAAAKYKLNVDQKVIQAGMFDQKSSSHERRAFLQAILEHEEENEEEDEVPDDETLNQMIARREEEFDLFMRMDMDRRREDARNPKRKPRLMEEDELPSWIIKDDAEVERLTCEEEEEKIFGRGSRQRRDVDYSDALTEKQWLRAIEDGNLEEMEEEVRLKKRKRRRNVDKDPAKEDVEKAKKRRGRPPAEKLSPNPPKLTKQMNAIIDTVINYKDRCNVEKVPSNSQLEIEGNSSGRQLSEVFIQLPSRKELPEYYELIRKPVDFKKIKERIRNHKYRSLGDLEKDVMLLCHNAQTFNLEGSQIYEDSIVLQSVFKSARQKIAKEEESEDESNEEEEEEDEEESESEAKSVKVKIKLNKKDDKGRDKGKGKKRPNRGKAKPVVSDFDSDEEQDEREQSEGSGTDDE

| DC50 (6 h incubation) [nM] | Emax [1] [%] | Structure (SMILES) | HiBit A549 SMARCA2 Emax (%) 6 h (6 h incubation, Emax = amount of residual protein remaining in the cell following compound treatment) [%] |
| --- | --- | --- | --- |
| 855 | 54 | Nc1nnc(-c2ccccc2O)cc1N1CCC(NC(=O)CCCN2CCC(c3ccc(OC4CCC(=O)NC4=O)cc3)CC2)(c2ccccc2)CC1 (centres unmarked) [Example 151, N-[1-[3-amino-6-(2-hydroxyphenyl)pyridazin-4-yl]-4-phenyl-4-piperidyl]-4-[4-[4-[(2,6-dioxo-3-piperidyl)oxy]phenyl]-1-piperidyl]butanamide] |  |
| 216 | 28 | CCC(Nc1cccc2c1C(=O)N(C1CCC(=O)NC1=O)C2=O)c1cn(CCCCCCCCCN2CCN(c3ccc(N4CCC[C@H](Oc5cc(-c6ccccc6O)nnc5N)C4)cc3)CC2)nn1 (mixture of isomers) [Example 203, 2-(2,6-dioxo-3-piperidyl)-4-[1-[1-[9-[4-[4-[rac-(3S)-3-[3-amino-6-(2-hydroxyphenyl)pyridazin-4-yl]oxy-1-piperidyl]phenyl]piperazin-1-yl]nonyl]triazol-4-yl]propylamino]isoindoline-1,3-dione] |  |
| 55 | 37 | CC(C)(Nc1cccc2c1C(=O)N(C1CCC(=O)NC1=O)C2=O)c1cn(CCCCCCCCCN2CCN(c3ccc(N4CCCC(Oc5cc(-c6ccccc6O)nnc5N)C4)cc3)CC2)nn1 (centres unmarked) [Example 88, 4-[[1-[1-[9-[4-[4-[3-[3-amino-6-(2-hydroxyphenyl)pyridazin-4-yl]oxy-1-piperidyl]phenyl]piperazin-1-yl]nonyl]triazol-4-yl]-1-methyl-ethyl]amino]-2-(2,6-dioxo-3-piperidyl)isoindoline-1,3-dione] |  |
| 104 | 45 | Nc1nnc(-c2ccccc2O)cc1N1CCC(C(=O)NCC2CCN(C(=O)CC3CCN(c4ccc5c(c4)C(=O)N(C4CCC(=O)NC4=O)C5=O)CC3)CC2)(c2ccccc2)CC1 (centres unmarked) [Example 103, 1-(3-amino-6-(2-hydroxyphenyl)pyridazin-4-yl)-N-((1-(2-(1-(2-(2,6-dioxopiperidin-3-yl)-1,3-dioxoisoindolin-5-yl)piperidin-4-yl)acetyl)piperidin-4-yl)methyl)-4-phenylpiperidine-4-carboxamide] |  |
| 67 | 61 | Nc1nnc(-c2ccccc2O)cc1N1CCC(OCC(=O)NC2CCN(C(=O)CN3CCC(c4ccc(OC5CCC(=O)NC5=O)cc4)CC3)CC2)(c2ccccc2)CC1 (centres unmarked) [Example 194, 2-[[1-[3-amino-6-(2-hydroxyphenyl)pyridazin-4-yl]-4-phenyl-4-piperidyl]oxy]-N-[1-[2-[4-[4-[(2,6-dioxo-3-piperidyl)oxy]phenyl]-1-piperidyl]acetyl]-4-piperidyl]acetamide] |  |
| 273 | 59 | Nc1nnc(-c2ccccc2O)cc1N1CCC2(CC1)CN(c1cccc(OCCN3CCN(C(=O)C4CCN(c5ccc6c(c5)C(=O)N(C5CCC(=O)NC5=O)C6=O)CC4)CC3)c1)CCO2 (centres unmarked) [Example 83, 5-(4-(4-(2-(3-(9-(3-amino-6-(2-hydroxyphenyl)pyridazin-4-yl)-1-oxa-4,9-diazaspiro[5.5]undecan-4-yl)phenoxy)ethyl)piperazine-1-carbonyl)piperidin-1-yl)-2-(2,6-dioxopiperidin-3-yl)isoindoline-1,3-dione] |  |
| 23 | 35 | Nc1nnc(-c2ccccc2O)cc1N1CCC(CNC(=O)CCCN2CCC(c3ccc(OC4CCC(=O)NC4=O)cc3)CC2)(c2ccccc2)CC1 (centres unmarked) [Example 78, N-((1-(3-amino-6-(2-hydroxyphenyl)pyridazin-4-yl)-4-phenylpiperidin-4-yl)methyl)-4-(4-(4-((2,6-dioxopiperidin-3-yl)oxy)phenyl)piperidin-1-yl)butanamide] |  |

| Structure (SMILES) | DC50 (6 h incubation) [nM] | Emax [1] [%] | HiBit A549 SMARCA2 Emax (%) 6 h (6 h incubation, Emax = amount of residual protein remaining in the cell following compound treatment) [%] |
| --- | --- | --- | --- |
| Nc1nnc(-c2ccccc2O)cc1N1CC2CCC(C1)N2c1cccc(OCCN2CCN(C(=O)N3CCC(Oc4ccc5c(c4)C(=O)N(C4CCC(=O)NC4=O)C5=O)CC3)CC2)c1 (racemic) [Example 40, rac-5-[[1-[4-[2-[3-[3-[3-amino-6-(2-hydroxyphenyl)pyridazin-4-yl]-3,8-diazabicyclo[3.2.1]octan-8-yl]phenoxy]ethyl]piperazine-1-carbonyl]-4-piperidyl]oxy]-2-(2,6-dioxo-3-piperidyl)isoindoline-1,3-dione] | 22 | 32 |  |
| Nc1nnc(-c2ccccc2O)cc1N1CC2CCC(C1)N2c1cccc(OCCN2CCN(C(=O)C3CCN(c4ccc5c(c4)C(=O)N(C4CCC(=O)NC4=O)C5=O)CC3)CC2)c1 (racemic) [Example 142, rac-5-[4-[4-[2-[3-[3-[3-amino-6-(2-hydroxyphenyl)pyridazin-4-yl]-3,8-diazabicyclo[3.2.1]octan-8-yl]phenoxy]ethyl]piperazine-1-carbonyl]-1-piperidyl]-2-(2,6-dioxo-3-piperidyl)isoindoline-1,3-dione] | 2 | 14 |  |
| Nc1nnc(-c2ccccc2O)cc1N1CC2CCC(C1)N2c1cccc(OCCN2CCN(C(=O)CCC(=O)N3CCC(Oc4cccc5c4C(=O)N(C4CCC(=O)NC4=O)C5=O)CC3)CC2)c1 (racemic) [Example 9, rac-4-[[1-[4-[4-[2-[3-[3-[3-amino-6-(2-hydroxyphenyl)pyridazin-4-yl]-3,8-diazabicyclo[3.2.1]octan-8-yl]phenoxy]ethyl]piperazin-1-yl]-4-oxo-butanoyl]-4-piperidyl]oxy]-2-(2,6-dioxo-3-piperidyl)isoindoline-1,3-dione] | 339 | 58 |  |
| Nc1nnc(-c2ccccc2O)cc1N1CC2CCC(C1)N2c1cccc(OCCN2CCN(C(=O)CNC(=O)C3CCN(c4ccc5c(c4)C(=O)N(C4CCC(=O)NC4=O)C5=O)CC3)CC2)c1 (racemic) [Example 19, rac-N-[2-[4-[2-[3-[3-[3-amino-6-(2-hydroxyphenyl)pyridazin-4-yl]-3,8-diazabicyclo[3.2.1]octan-8-yl]phenoxy]ethyl]piperazin-1-yl]-2-oxo-ethyl]-1-[2-(2,6-dioxo-3-piperidyl)-1,3-dioxo-isoindolin-5-yl]piperidine-4-carboxamide] | 64 |  | 34 |
| Nc1nnc(-c2ccccc2O)cc1N1CC2CCC(C1)N2c1cccc(OCCN2CCN(C(=O)CNC(=O)C3CCN(c4cccc5c4C(=O)N(C4CCC(=O)NC4=O)C5=O)CC3)CC2)c1 (racemic) [Example 18, rac-N-[2-[4-[2-[3-[3-[3-amino-6-(2-hydroxyphenyl)pyridazin-4-yl]-3,8-diazabicyclo[3.2.1]octan-8-yl]phenoxy]ethyl]piperazin-1-yl]-2-oxo-ethyl]-1-[2-(2,6-dioxo-3-piperidyl)-1,3-dioxo-isoindolin-4-yl]piperidine-4-carboxamide] | 134 | 62 |  |
| Nc1nnc(-c2ccccc2O)cc1N1CC2CCC(C1)N2c1ccc(C(F)(F)F)c(C(=O)N2CCN(C(=O)C3CCN(c4ccc5c(c4)C(=O)N(C4CCC(=O)NC4=O)C5=O)CC3)CC2)c1 (racemic) [Example 107, rac-5-[4-[4-[5-[3-[3-amino-6-(2-hydroxyphenyl)pyridazin-4-yl]-3,8-diazabicyclo[3.2.1]octan-8-yl]-2-(trifluoromethyl)benzoyl]piperazine-1-carbonyl]-1-piperidyl]-2-(2,6-dioxo-3-piperidyl)isoindoline-1,3-dione] | 193 | 51 |  |

From US20230024096A1, “BIFUNCTIONAL COMPOUNDS FOR THE TREATMENT OF CANCER” (Hoffmann-La Roche Inc., priority 2019, published 2023)
